Assay results published in ChEMBL document CHEMBL1201862, “PubChem BioAssay data set” (2004).
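Method: 48-hour compound exposure of cells in 96-well plates, five concentrations, linear interpolation of endpoints. GI50: concentration for 50% inhibition of growth.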 Active and inactive are the calls of the source. No stated cut-off is given here; in the data, active = GI50 up to about 1.1 µM and inactive = higher.

Key:
Assay in all cases: inhibition of tumour cell growth, NCI panel, 48 h
[1] = test system: NCI/ADR-RES
[2] = test system: HOP-92
[3] = test system: IGROV-1
[4] = test system: CAKI-1
[5] = test system: CCRF-CEM
[6] = test system: SK-MEL-28
[7] = test system: A549
[8] = test system: MDA-MB-435
[9] = test system: M14
[10] = test system: HOP-62
[11] = test system: EKVX
[12] = test system: NCI-H226
[13] = test system: SF-539
[14] = test system: SR
[15] = test system: SK-OV-3
[16] = test system: T47D
[17] = test system: KM12
[18] = test system: SNB-19
[19] = test system: U-251
[20] = test system: SK-MEL-2

SMILES	GI50 [1]	GI50 [2]	GI50 [3]	GI50 [4]	GI50 [5]	GI50 [6]	GI50 [7]	GI50 [8]	GI50 [9]	GI50 [10]	GI50 [11]	GI50 [12]	GI50 [13]	GI50 [14]	GI50 [15]	GI50 [16]	GI50 [17]	GI50 [18]	GI50 [19]	GI50 [20]
CCCCOC(=O)NC(Nc1ccc(S(=O)(=O)Nc2ncccn2)cc1)(C(F)(F)F)C(F)(F)F	> 100 µM (inactive)	> 100 µM (inactive)	> 100 µM (inactive)	> 100 µM (inactive)	76 µM (inactive)	> 100 µM (inactive)	> 100 µM (inactive)	> 100 µM (inactive)	> 100 µM (inactive)	> 100 µM (inactive)	> 100 µM (inactive)	> 100 µM (inactive)	> 100 µM (inactive)	78.2 µM (inactive)	> 100 µM (inactive)	37 µM (inactive)	> 100 µM (inactive)	> 100 µM (inactive)	–	–
Cc1nnc2sc(-c3ccc([N+](=O)[O-])o3)nn12	16.4 µM (inactive)	15.9 µM (inactive)	15.7 µM (inactive)	10 µM (inactive)	1.85 µM (inactive)	–	37.8 µM (inactive)	4.37 µM (inactive)	9.91 µM (inactive)	15.2 µM (inactive)	20.5 µM (inactive)	15 µM (inactive)	4.84 µM (inactive)	8.61 µM (inactive)	18.7 µM (inactive)	20 µM (inactive)	15.8 µM (inactive)	18.8 µM (inactive)	14.7 µM (inactive)	10.4 µM (inactive)
O=C(c1cccs1)N(C(=S)OC12CC3CC(CC(C3)C1)C2)c1ccccc1	29.6 µM (inactive)	24.8 µM (inactive)	–	28.3 µM (inactive)	15.3 µM (inactive)	54.8 µM (inactive)	32.8 µM (inactive)	29.8 µM (inactive)	19.2 µM (inactive)	47.6 µM (inactive)	17.8 µM (inactive)	33.3 µM (inactive)	34.5 µM (inactive)	25.2 µM (inactive)	28.4 µM (inactive)	76.7 µM (inactive)	31.9 µM (inactive)	33.7 µM (inactive)	29.1 µM (inactive)	18.2 µM (inactive)
COc1ccc2c(-c3ccc(O)cc3)c(Oc3ccccc3)c(=O)oc2c1	14.2 µM (inactive)	12 µM (inactive)	3.78 µM (inactive)	2.72 µM (inactive)	3.96 µM (inactive)	96.8 µM (inactive)	8.17 µM (inactive)	> 100 µM (inactive)	> 100 µM (inactive)	31.1 µM (inactive)	4.89 µM (inactive)	29.9 µM (inactive)	24.7 µM (inactive)	3.24 µM (inactive)	6.49 µM (inactive)	> 28 µM (inactive)	14.6 µM (inactive)	–	> 22.9 µM (inactive)	> 100 µM (inactive)
O=C(/C=C/c1ccc2c(c1)OCO2)c1ccccc(=O)c1O	2.08 µM (inactive)	13.7 µM (inactive)	5.77 µM (inactive)	5.98 µM (inactive)	0.0376 µM (active)	21.2 µM (inactive)	–	13.9 µM (inactive)	–	20.9 µM (inactive)	20.7 µM (inactive)	35.6 µM (inactive)	–	> 100 µM (inactive)	–	20.9 µM (inactive)	8.43 µM (inactive)	8.71 µM (inactive)	15.9 µM (inactive)	20.8 µM (inactive)
Nc1nc(Nc2ccc(Cl)cc2)sc1C(=O)c1cccs1	50.6 µM (inactive)	44.5 µM (inactive)	39.6 µM (inactive)	–	53.7 µM (inactive)	> 100 µM (inactive)	27.9 µM (inactive)	> 100 µM (inactive)	> 100 µM (inactive)	25.6 µM (inactive)	20 µM (inactive)	24.7 µM (inactive)	21.6 µM (inactive)	2.4 µM (inactive)	22.9 µM (inactive)	77.8 µM (inactive)	> 100 µM (inactive)	19.9 µM (inactive)	14.7 µM (inactive)	98.9 µM (inactive)
O=[N+]([O-])c1ccc(OP(=O)(O)OCC2OC(CP(=O)(O)O)C(O)C2O)cc1 (stereo not given)	> 100 µM (inactive)	> 100 µM (inactive)	> 100 µM (inactive)	> 100 µM (inactive)	> 100 µM (inactive)	> 100 µM (inactive)	> 100 µM (inactive)	> 100 µM (inactive)	> 100 µM (inactive)	> 100 µM (inactive)	> 100 µM (inactive)	–	> 100 µM (inactive)	> 100 µM (inactive)	–	> 100 µM (inactive)	> 100 µM (inactive)	> 100 µM (inactive)	> 100 µM (inactive)	> 100 µM (inactive)
CC(=O)NC1C(OCc2ccccc2)OC(CO)C(O)C1OC(C)C(=O)NC(C(=O)NC(CCC(=O)NCCCC(=O)Nc1ccc2c(c1)CN1C(=O)c3ccccc3C1=N2)C(N)=O)C(C)C (stereo not given)	> 100 µM (inactive)	> 100 µM (inactive)	> 100 µM (inactive)	> 100 µM (inactive)	> 100 µM (inactive)	> 100 µM (inactive)	> 100 µM (inactive)	> 100 µM (inactive)	> 100 µM (inactive)	> 100 µM (inactive)	> 100 µM (inactive)	–	> 100 µM (inactive)	> 100 µM (inactive)	> 100 µM (inactive)	> 100 µM (inactive)	> 100 µM (inactive)	> 100 µM (inactive)	> 100 µM (inactive)	> 100 µM (inactive)
CCCC1(NC(=O)C(F)(F)F)CC(OC)OC2COC(c3ccccc3)OC21 (stereo not given)	29.3 µM (inactive)	9.23 µM (inactive)	> 100 µM (inactive)	6.31 µM (inactive)	66.4 µM (inactive)	> 100 µM (inactive)	28.3 µM (inactive)	18.1 µM (inactive)	26.8 µM (inactive)	> 100 µM (inactive)	36.3 µM (inactive)	> 100 µM (inactive)	> 100 µM (inactive)	24.8 µM (inactive)	70 µM (inactive)	59.4 µM (inactive)	–	> 100 µM (inactive)	46.7 µM (inactive)	26.8 µM (inactive)
C[C@]12CCC(=O)C=C1CC[C@@H]1[C@@H]2CC[C@]2(C)C(=O)/C(=C/c3ccc([N+](=O)[O-])cc3)C[C@@H]12	5.85 µM (inactive)	> 100 µM (inactive)	> 100 µM (inactive)	8.95 µM (inactive)	8.97 µM (inactive)	> 100 µM (inactive)	8.36 µM (inactive)	6.04 µM (inactive)	29.4 µM (inactive)	49.8 µM (inactive)	17.1 µM (inactive)	> 100 µM (inactive)	79.3 µM (inactive)	2.9 µM (inactive)	> 100 µM (inactive)	3.48 µM (inactive)	6.93 µM (inactive)	> 100 µM (inactive)	–	62.5 µM (inactive)
O=C1NC(=O)C(c2c[nH]c3ccccc23)=C1c1cn(C(c2ccccc2)(c2ccccc2)c2ccccc2)cn1	4.29 µM (inactive)	7.13 µM (inactive)	8.87 µM (inactive)	35.4 µM (inactive)	3.98 µM (inactive)	16.2 µM (inactive)	3.14 µM (inactive)	3.92 µM (inactive)	4.76 µM (inactive)	–	4.19 µM (inactive)	5.87 µM (inactive)	15.4 µM (inactive)	2.7 µM (inactive)	14.7 µM (inactive)	7.19 µM (inactive)	4.06 µM (inactive)	11.3 µM (inactive)	4.25 µM (inactive)	11.2 µM (inactive)
COc1cc(/C=C2\N=C(c3ccccc3)N(c3nc4c(OC)ccc(OC)c4s3)C2=O)ccc1O	> 100 µM (inactive)	35.6 µM (inactive)	46.8 µM (inactive)	> 100 µM (inactive)	28.1 µM (inactive)	> 100 µM (inactive)	69.3 µM (inactive)	20.1 µM (inactive)	88.5 µM (inactive)	90.8 µM (inactive)	> 100 µM (inactive)	–	57.9 µM (inactive)	30 µM (inactive)	> 100 µM (inactive)	5.47 µM (inactive)	51.2 µM (inactive)	> 100 µM (inactive)	29.9 µM (inactive)	35.5 µM (inactive)
O=C(NNC(=S)Nc1ccccc1)c1csc(NC(=S)NC2CCCCC2)n1	85.7 µM (inactive)	94 µM (inactive)	29.5 µM (inactive)	> 100 µM (inactive)	54.8 µM (inactive)	–	> 100 µM (inactive)	35.5 µM (inactive)	69.8 µM (inactive)	> 100 µM (inactive)	20.1 µM (inactive)	9.59 µM (inactive)	77.4 µM (inactive)	49.5 µM (inactive)	> 100 µM (inactive)	36.9 µM (inactive)	> 100 µM (inactive)	–	48.4 µM (inactive)	> 100 µM (inactive)
COc1cc(S(=O)(=O)Nc2nc(-c3ccc(N4C(=O)/C(=C\c5cccs5)N=C4c4ccccc4)cc3)cs2)ccc1Cl	> 100 µM (inactive)	28.1 µM (inactive)	42.2 µM (inactive)	> 100 µM (inactive)	41 µM (inactive)	71.6 µM (inactive)	> 100 µM (inactive)	55.6 µM (inactive)	> 100 µM (inactive)	> 100 µM (inactive)	–	> 100 µM (inactive)	49.9 µM (inactive)	39.5 µM (inactive)	> 100 µM (inactive)	45.8 µM (inactive)	94 µM (inactive)	66.2 µM (inactive)	45.4 µM (inactive)	29.2 µM (inactive)
